Laboratory results reported in patent publication US20240002372A1, “ANTICHOLINERGIC AGENTS” (REZUBIO PHARMACEUTICALS CO., LTD, priority 2020, published 2024).
Structures can show the parent of a compound that is named as a salt.

Target: M3 receptor (Homo sapiens (Human), UniProt P20309)
Assay: FLIPR calcium flux assay, antagonist mode, CHO-K1 cells stably expressing M3 receptor
Assay type: cell-based
Conditions: inhibition of acetylcholine-induced calcium flux (8 nM acetylcholine, EC80)
Description: FLIPR assay was used to evaluate the potency of compounds. CHO-K1 cells stably expressing M3 receptor were cultured at 37° C. in the culture media (90% Ham's F-12 Nutrient Mixture, Gibco; 10% fetal bovine serum, Biosera; 200 μg/mL Hygromycin, and Penicillin (100 U/mL)/Streptomycin (100 μg/mL), Invitrogen) till 100% confluency in cell culture incubator (ThermoFisher, 5% CO2). Cells were harvested by using 0.25% Trypsin/EDTA, spun down at 300×g for 5 min, and resuspended in the culture media at cell density of 5×10^5 cells/mL. Twenty microliter of cell suspension (10,000 cells/well) was transferred to 384-well plate and cultured for 24 hr before assay. DMSO was used as blank control and scopolamine (MedChemExpress) as a positive control for antagonist. Compounds were prepared in DMSO (stock concentration: 1 mM) and 3×serially diluted (10 concentrations) in 384-LDV plate (Labcyte). Ninety nL of serially diluted compounds were transferred from 384-LDV plate into compound plate (PerkinElmer) by Echo 550 (Labcyte), and 30 uL assay buffer (1×HBSS with 20 mM HEPES, pH 7.4, Sigma) were added to each well. For FLIPR assay, culture media was removed and 20 uL of 1× loading dye (Assay buffer with 2 μM Fluo-8 AM, AAT Bioquest; 1 mM Probenecid and 0.0025% pluronic F-127, Sigma) was added to each well. The plate was incubated at 37° C. for 1 hr (avoid light exposure). For FLIPR assay, Excitation wavelength was set at 470/495 nm and Emission wavelength was set at 515/575 nm (Molecular Devices). Assay was performed in both agonist and antagonist modes. For agonist mode, 10 μL of diluted compounds were transferred to cell culture well and incubated at room temperature for 10 min. For antagonist mode, 10 μL diluted compounds with 8 nM acetylcholine (EC80, MedChemExpress) was added to each well, incubated at room temperature for 10 min. RFU value was calculated by subtracting minimum from maximum of FLIPR signal. Inhibitory effect of compounds on acetylcholine-induced calcium flux was calculated by % Effect=(RFUsample−RFUDMSO)/(RFUScopolamine−RFUDMSO)×100. Dose response curve fitting and IC50 value of each compound was calculated by using XLFit. The following table lists the IC50 where * means IC50>1000 nM; ** 10-100 nM; ***<10 nM.

M3 receptor, sequence (P20309 whole entry): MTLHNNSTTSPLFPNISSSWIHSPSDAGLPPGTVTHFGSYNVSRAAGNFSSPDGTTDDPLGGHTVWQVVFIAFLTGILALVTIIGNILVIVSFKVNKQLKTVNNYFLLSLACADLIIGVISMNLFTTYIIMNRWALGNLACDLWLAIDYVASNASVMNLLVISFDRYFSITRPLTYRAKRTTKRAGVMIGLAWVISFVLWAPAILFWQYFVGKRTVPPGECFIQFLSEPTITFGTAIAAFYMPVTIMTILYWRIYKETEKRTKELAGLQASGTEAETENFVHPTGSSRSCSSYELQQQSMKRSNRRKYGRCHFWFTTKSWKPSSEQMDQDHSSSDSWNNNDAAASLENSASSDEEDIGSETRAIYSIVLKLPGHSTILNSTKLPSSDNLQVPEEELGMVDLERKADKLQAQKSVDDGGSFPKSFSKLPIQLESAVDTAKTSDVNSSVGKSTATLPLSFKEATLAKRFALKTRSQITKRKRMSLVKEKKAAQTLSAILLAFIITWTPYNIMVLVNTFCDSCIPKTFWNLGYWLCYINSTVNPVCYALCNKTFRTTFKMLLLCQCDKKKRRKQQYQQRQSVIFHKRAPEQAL

IC50	Structure (SMILES)
10 to 100 nM	C[N+]1(C)CCC[C@H]1COC(=O)C(O)c1ccccc1C1=CCCC1 (single isomer, unassigned) [Example 8, trifluoroacetate]
10 to 100 nM	C[N+]1(C)CC[C@H](OC(=O)C(O)c2ccccc2C2=CCCC2)C1 (single isomer, unassigned) [Example 5, trifluoroacetate]
< 10 nM	C[N+]1(C)CCC[C@@H]1COC(=O)C(O)c1ccccc1C1=CCCC1 (single isomer, unassigned) [Example 6, trifluoroacetate]
< 10 nM	C[N+]1(C)CCC[C@H]1COC(=O)C(O)c1ccccc1C1=CCCC1 (single isomer, unassigned) [Example 9, trifluoroacetate]

Further lines, the compound ahead of its results:

Structure (SMILES)	IC50
C[N+]1(C)CCC[C@@H]1COC(=O)C(O)c1ccccc1C1=CCCC1 (stereo partly drawn) [Example 7, (R)-2-((2-(2-(cyclopent-1-en-1-yl)phenyl)-2-hydroxyacetoxy)methyl)-1,1-dimethylpyrrolidin-1-ium trifluoroacetate]	10 to 100 nM
C[N+]1(C)CC[C@@H](OC(=O)C(O)c2ccccc2C2=CCCC2)C1 (single isomer, unassigned) [Example 2, trifluoroacetate]	< 10 nM
C[N+]1(C)CCC(OC(=O)C(O)c2ccccc2-c2ccccc2)C1 (stereo not drawn) [Example 11, 3-(2-([1,1′-biphenyl]-2-yl)-2-hydroxyacetoxy)-1,1-dimethylpyrrolidin-1-ium chloride]	10 to 100 nM
C[N+]1(C)CC[C@@H](OC(=O)C(O)c2ccccc2-c2ncco2)C1 (stereo partly drawn) [Example 1, (3R)-3-(2-hydroxy-2-(2-(oxazol-2-yl)phenyl)acetoxy)-1,1-dimethylpyrrolidin-1-ium trifluoroacetate]	10 to 100 nM
CC(C)c1ccccc1C(O)C(=O)OC1CC[N+](C)(C)C1 (stereo not drawn) [Example 12, 3-(2-hydroxy-2-(2-isopropylphenyl)acetoxy)-1,1-dimethylpyrrolidin-1-ium chloride]	> 1000 nM
C[N+]1(C)CCC(OC(=O)C(O)c2ccccc2C2CCCC2)C1 (stereo not drawn) [Example 10, 3-[2-(2-Cyclopentyl-phenyl)-2-hydroxy-acetoxy]-1,1-dimethyl-pyrrolidinium chloride]	10 to 100 nM
C[N+]1(C)CC[C@H](OC(=O)C(O)c2ccccc2C2=CCCC2)C1 (single isomer, unassigned) [Example 4, trifluoroacetate]	10 to 100 nM
C[N+]1(C)CC[C@@H](OC(=O)C(O)c2ccccc2C2=CCCC2)C1 (single isomer, unassigned) [Example 3, trifluoroacetate]	10 to 100 nM
